Columns and labels:
[1] = xn = mol fraction of the nth substance listed; settings: 101.3 kPa, Liquid
[2] = 101.33 kPa, Liquid

CCN(CC)CC [triethylamine] + CCOC(C)=O
[1], 303.15 K
Settings	mass density [kg/m3]	viscosity [mPa·s]
x1 = 0.0127	885.47	0.395
x1 = 0.0205	883.69	0.389
x1 = 0.0323	881	0.386
x1 = 0.0407	879.1	0.382
x1 = 0.0522	876.53	0.379
x1 = 0.0608	874.62	0.376
x1 = 0.0702	872.41	0.374
x1 = 0.0783	870.58	0.371
x1 = 0.09	867.91	0.369
x1 = 0.0996	866.05	0.367

CCCN [propan-1-amine]
[2]
Settings	mass density [kg/m3]	viscosity [mPa·s]
303.15 K	706.1	0.353
313.15 K	696.04	0.313

CCN(CC)CC [triethylamine]
[2], 303.15 K
Settings	mass density [kg/m3]	viscosity [mPa·s]
–	718.44	0.33

CCCN(CCC)CCC [tripropylamine]
[2]
Settings	mass density [kg/m3]	viscosity [mPa·s]
303.15 K	749.15	0.598
313.15 K	740.41	0.538

CCCCNCCCC [dibutylamine] + ClC(Cl)(Cl)Cl
[1]
Settings	mass density, 303.15 K [kg/m3]	mass density, 313.15 K [kg/m3]	viscosity, 303.15 K [mPa·s]	viscosity, 313.15 K [mPa·s]
x1 = 0.0105	1560.01	1540.58	0.852	0.761
x1 = 0.0201	1546.59	1527.31	0.851	0.76
x1 = 0.0298	1533.23	1514.26	0.85	0.761
x1 = 0.0396	1519.86	1501.14	0.85	0.76
x1 = 0.049	1507.12	1488.59	0.849	0.759
x1 = 0.0583	1494.77	1476.4	0.847	0.757
x1 = 0.0696	1480	1461.9	0.846	0.755
x1 = 0.0789	1467.95	1450.12	0.845	0.754
x1 = 0.089	1455.15	1437.55	0.845	0.752

O=[N+]([O-])c1ccccc1 [nitrobenzene]
[2], 303.15 K
Settings	mass density [kg/m3]	viscosity [mPa·s]
–	1193.4	1.617

CCCCN [1-butanamine] + ClC(Cl)Cl
[1]
Settings	mass density, 303.15 K [kg/m3]	mass density, 313.15 K [kg/m3]	viscosity, 303.15 K [mPa·s]	viscosity, 313.15 K [mPa·s]
x1 = 0.0091	1462.78	1440.74	0.528	0.478
x1 = 0.0196	1453.53	1431.89	0.536	0.485
x1 = 0.0289	1445.49	1423.81	0.544	0.493
x1 = 0.0409	1435.01	1413.72	0.55	0.499
x1 = 0.0483	1428.52	1407.41	0.556	0.505
x1 = 0.0578	1420.29	1399.24	0.562	0.511
x1 = 0.0676	1411.7	1390.72	0.566	0.517
x1 = 0.0775	1403.16	1382.3	0.569	0.521
x1 = 0.0848	–	–	0.573	0.525

Clc1ccccc1 [chlorobenzene]
[2], 303.15 K
Settings	mass density [kg/m3]	viscosity [mPa·s]
–	1095.49	0.718

CCCN [propan-1-amine] + ClC(Cl)Cl
[1]
Settings	mass density, 303.15 K [kg/m3]	mass density, 313.15 K [kg/m3]	viscosity, 303.15 K [mPa·s]	viscosity, 313.15 K [mPa·s]
x1 = 0.01	1463.1	1441.12	0.523	0.474
x1 = 0.0207	1454.77	1433.07	0.526	0.478
x1 = 0.0296	1447.98	1426.56	0.529	0.481
x1 = 0.0426	1437.89	1416.8	0.533	0.485
x1 = 0.0491	1432.95	1411.95	0.536	0.488
x1 = 0.0595	1424.84	1403.97	0.539	0.491
x1 = 0.0689	1417.67	1396.96	0.542	0.495
x1 = 0.0796	1409.35	1388.75	0.544	0.496
x1 = 0.096	1396.86	1376.41	0.548	0.5

ClC(Cl)(Cl)Cl [tetrachloromethane]
[2]
Settings	mass density [kg/m3]	viscosity [mPa·s]
303.15 K	1574.78	0.852
313.15 K	1555.02	0.76

— the NIST ThermoML archive (doi:10.1016/j.tca.2004.08.013)
